How the values were obtained:
male Wistar/AF EOPS rats [1] = assay: Behavioral despair test (forced swimming); format: in vivo, rat; details: for Immobility period, Test session / Immobility period, Retest session: first 5 minutes; for Immobility period, Test session: test is before any treatment
Method: Forty male Wistar/AF EOPS rats (Iffa-Credo Breeding Centre, 69-St-Germain sur l'Arbresle, France), weighing 300 to 320 g, were used. On arrival, the rats were labelled and distributed randomly in pairs into type F polycarbonate cages (48×27×20 cm, U.A.R., 91-Epinay-Sur-Orge, France). The animals were stabled in an air-conditioned animal house, at a temperature of 22-24° C. The rats were given food (M25 croquettes, Ets Piétrement, 77-Provins, France) and drink ad libitum and were subjected to a 12-hour light-darkness cycle.
After one week of familiarization with the laboratory conditions, the rats were weighed and distributed randomly into 3 treatment groups (n=12). The rats of the different groups will all be handled in the same way and under the same conditions.
The behavioral despair test takes place over two sessions: • a 15-minute test session; • a 5-minute retest session, performed 24 hours later.
During the test session, the rat was subjected to forced swimming in a Plexiglas cylinder (20 cm in diameter and 50 cm in height, containing 25 cm of water at 25° C.) and its behavior was recorded over 15 minutes. At the end of the test, the rat was removed from the water, dried gently, treated and then returned to its dwelling cage.
During the retest, 24 hours later, the rat was again placed in the water and its behavior was recorded over 5 minutes.
The recorded variables are the period of immobility during the first 5 minutes of both the test and the retest.
The peptide FG-005 was suspended at a rate of 500 μg per 5 ml of 0.01N acetic acid, and then diluted with PBS to be administered at doses of 50 and 100 μg/kg via the i.v. route into the dorsal caudal vein of the rat, immediately after the test and 300 and 5 minutes before the retest the following day (Table X). 8-OH-DPAT was injected i.p.
A bilateral probability paired t test was used to compare the two periods of immobility of the test with those of the retest in each of the groups. The results are expressed as an average standard error of mean (SEM) (Table XI and FIG. 20). The statistical and graphical processing was performed using Statview5 and DeltaGraph® Pro 3.5 software.

male Wistar/AF EOPS rats [2] = assay: Behavioral despair test (forced swimming); format: in vivo, rat; details: 100 mg/kg; difference not statistically significant
male rats [3] = assay: First two post ejaculatory intervals (PEI); format: in vivo, rat
Method: All quantitative results are statistically analyzed using a Krukal-Wallis test (KWT), as a between-group variable, followed by Mann-Whitney U-test (MWT) to compare the treated group to control one. Friedman test (FT), as within-group variable, was used for repeated measures across the first three ejaculatory series, followed by Wilcoxon (WT). Data are reported as mean ±SEM. For all statistical evaluations, the level of significance was set at p<0.05. All statistical analyses were carried out using the Statview™ 4.5 statistical package (Abacus Concepts, Inc, Berkeley, Calif.).
Masculine sociosexual behaviors other than copulatory acts were measured and analyzed during the two successive post-ejaculatory intervals. Among these are pursuit of the female, sniffing, grooming, running behind the partner in close contact and anogenital exploration (sniffing, licking and grooming the partner). […] Thus, for a similar amount of time in PEI duration compared to controls, the 3 μg/kg-treated rats spent during this interval, 7 to 10 fold more amount of time to pursue and groom the female.

[4] = test system: male rats with sexually receptive female; assay: Dose-response relationship of FG-005 on male rat sexual behavior; format: in vivo; details: for total number of mounts with or without intromission, Mean: 45-min observation
Method: Effect of increasing concentrations of FG-005 peptide (SMR1-QHNPR) given i.v. on the number of sexual intercourse episodes of male rats with sexually receptive female, was assessed. All of the […] parameters were analyzed using one-way analysis of variance (ANOVA) for the differences between treated groups and followed by the multiple comparison test of Fisher (PLSD Fisher) to compare each group of FG-005-injected rats with the control group (vehicle-injected rats). Nine to ten rats were used for each group and P value of less than 0.005 was considered as significant for both tests.
This is appreciated by the significant dose-dependent increase of sexual interactions (mounts, mounts with intromission and mounts per ejaculation) during (first ejaculation latency and interejaculatory latency) episodes of sexual intercourse.

male Wistar rats [5] = assay: Behavior of male rats in the presence of receptive females; format: in vivo, rat
Method: Behavior tests were performed on 12 male Wistar rats (Iffa Credo, L'Arbresles, France), weighing 260-280 g. They were housed in groups of 4 in a climate controlled room with a 12-h light:dark cycle and had access to food and water ad libitum. After seven days acclimatization period, the rats were weighed, identified and randomly assigned to one of the four treatment groups. The rats were familiarized once with female rats which had been brought to sexual receptivity by injecting estradiol benzoate for 4 days (5 μg/0.5 ml oil, s.c. once daily). Behavioral testing was performed under blind conditions in a dimlight environment 2 hours after the onset of the dark phase of the light/dark cycle. Behavior was assessed by placing the male rat in a plexiglass cage (50×30×20 cm) five minutes before a receptive female was presented. All of the tests on rats were recorded on a VHS-videotape. The recorded parameters were: number of ejaculations, latency of first mount, latency of first ejaculation, number of mounts, postejaculatory interval, avoidance behavior patterns, awareness of other rats presence, initiation or response to social interaction, interest in other rat, self-care, willingness to enter into relationship. All of the quantitative results were analyzed using the Kruskal-Wallis test followed by the Mann-Whitney U-Test to compare each treated group with the control group. The statistical analyzes were carried out using the Statview 4.1 statistical package.

male Wistar rats [6] = assay: Irwin test; format: in vivo, rat; details: injected into tail vein, escalating doses
Method: An Irwin test was performed on 12 male Wistar rats (Iffa Credo, L'Arbresles, France), weighing 260-280 g. They were housed in groups of 4 in a climate controlled room with a 12 h light:dark cycle (light 8:00 PM-8:00 AM) and had access to food and water ad libitum. After a seven day acclimatization period, the rats were weighed, identified and randomly assigned to one of the four treatment groups. The drug was injected to the tail vein of the rats according to the group dose.
Observations were performed 15, 30, 60 and 120 minutes after administration. Among the most noticeable results are the results concerning the awareness state of the rats. […] Rats injected FG-005 are less stressed as shown by startle response test (FIG. 2), and by the abdominal tone (FIG. 3).

male rats [7] = details: high doses; cited from earlier work

CCCN(CCC)C1CCc2cccc(O)c2C1 (centres unmarked) [8-OH-DPAT, reference compound]
Immobility period, Test session (male Wistar/AF EOPS rats [1]; 0.5 mg/kg i.p. group): 109.20
Immobility period, Retest session (male Wistar/AF EOPS rats [1]; 0.5 mg/kg i.p., 1440, 300, 30 min before retest): 31.60
period of immobility, retest compared with test (male Wistar/AF EOPS rats [1]; 8-OH-DPAT 0.5 mg/kg i.p.): significantly reduce their period of immobility
anti-resignation effect (male Wistar/AF EOPS rats [1]; reference substance, 0.5 mg/kg i.p.): significant anti-resignation effect

Gln-His-Asn-Pro-Arg (QHNPR; This is a peptide sequence that was designed to achieve therapeutic effects in mammals.) [FG-005, synthesized pentapeptide with N-terminal Glutamine]
period of immobility, retest compared with test (male Wistar/AF EOPS rats [2]): reduce it
duration of the first PEI (male rats [3]; 1 μg/kg vs control): significantly longer
duration of the second PEI (male rats [3]; 0.3, 1 and 3 μg/kg): not significantly influenced
duration of male socio-sexual behaviors during the first and second PEI (male rats [3]; 0.3, 1 and 3 μg/kg vs controls): significantly more time
duration of male immobility during the first and second PEI (male rats [3]; 0.3, 1 and 3 μg/kg vs vehicle controls): significantly less time
mean number of mounts per ejaculation ([4]; 0.3 μg/kg i.v.): 20.220
number of mounts before the first ejaculation, Mean ([4]; 0.3 μg/kg i.v.): 31.111
number of mounts before the fourth ejaculation (interejaculatory interval), Mean ([4]; 0.3 μg/kg i.v.): 11.500
number of mounts before the third ejaculation (interejaculatory interval), Mean ([4]; 0.3 μg/kg i.v.): 13.444
number of mounts with intromission, Mean ([4]; 0.3 μg/kg i.v.): 77.111
total number of mounts with or without intromission, Mean ([4]; 0.3 μg/kg i.v.): 81.778
mean number of mounts per ejaculation ([4]; 1 μg/kg i.v.): 26.911
number of mounts before the first ejaculation, Mean ([4]; 1 μg/kg i.v.): 33.444
number of mounts before the fourth ejaculation (interejaculatory interval), Mean ([4]; 1 μg/kg i.v.): 19.143
number of mounts before the third ejaculation (interejaculatory interval), Mean ([4]; 1 μg/kg i.v.): 18.333
number of mounts with intromission, Mean ([4]; 1 μg/kg i.v.): 90.556
total number of mounts with or without intromission, Mean ([4]; 1 μg/kg i.v.): 96.667
first ejaculation latency ([4]; 3 μg/Kg vs vehicle-injected rats): increased significantly
total number of ejaculations ([4]; 3 μg/Kg, 45 min observation period): lower than that of vehicle-treated rats
mean number of mounts per ejaculation ([4]; 3 μg/kg i.v.): 36.013
number of mounts before the first ejaculation, Mean ([4]; 3 μg/kg i.v.): 37.500
number of mounts before the fourth ejaculation (interejaculatory interval), Mean ([4]; 3 μg/kg i.v.): 24.167
number of mounts before the third ejaculation (interejaculatory interval), Mean ([4]; 3 μg/kg i.v.): 22.889
number of mounts with intromission, Mean ([4]; 3 μg/kg i.v.): 97.700
total number of mounts with or without intromission, Mean ([4]; 3 μg/kg i.v.): 110.100
third ejaculation latency ([4]; dose-related manner): tended also to increase
second ejaculation latency ([4]; pronounced effect at 1 and 3 μg/Kg): significant dose-related prolongation
aggressive impulse behavior ([4]; treated vs control rats): loss of aggressive impulse behavior
Latency of the first mount, Mean (male Wistar rats [5]; 3 μg/kg): 93.333 s
latency of first mounts (in words) (male Wistar rats [5]; 3 μg/kg): significantly increased latency
number of ejaculations in 45 minutes, Mean (male Wistar rats [5]; 3 μg/kg): 5.333
refractory period between the second ejaculation and the next mount, Mean (male Wistar rats [5]; 3 μg/kg): 311.333 s
Latency of the first mount, Mean (male Wistar rats [5]; 15 μg/kg): 23.000 s
number of ejaculations in 45 minutes, Mean (male Wistar rats [5]; 15 μg/kg): 4.000
refractory period between the second ejaculation and the next mount, Mean (male Wistar rats [5]; 15 μg/kg): 412.000 s
Latency of the first mount, Mean (male Wistar rats [5]; 30 μg/kg): 13.667 s
number of ejaculations in 45 minutes, Mean (male Wistar rats [5]; 30 μg/kg): 4.667
refractory period between the second ejaculation and the next mount, Mean (male Wistar rats [5]; 30 μg/kg): 373.667 s
avoidance symptoms during refractory periods (male Wistar rats [5]; treated vs control rats): loss of avoidance symptoms
duration of refractory periods (in words) (male Wistar rats [5]; treated vs control rats): shortened
interest in the other rat after ejaculation (male Wistar rats [5]; treated vs non-treated rats): interest is maintained
number of episodes of intercourse (number of ejaculations in 45 minutes, in words) (male Wistar rats [5]; treated vs non-treated rats): significantly increased
self-care, attention to personal toilet after each penetration (male Wistar rats [5]; treated vs non-treated rats): increased
Immobility period, Retest session (male Wistar/AF EOPS rats [1]; 50 μg/kg i.v., 1440, 300, 5 min before retest): 141.20 ± 21.28
period of immobility, retest compared with test (male Wistar/AF EOPS rats [1]; 50 μg/kg, difference not statistically significant): increase their period of immobility
Immobility period, Retest session (male Wistar/AF EOPS rats [1]; 100 μg/kg i.v., 1440, 300, 5 min before retest): 121.50 ± 17.47
behavioral resignation (antidepressant effect) (male Wistar/AF EOPS rats [1]; 50 and 100 μg/kg, i.v.): no behavioral resignation
Immobility period, Test session (male Wistar/AF EOPS rats [1]; FG-50 group, 50 μg/kg i.v.): 119.00 ± 13.79
Immobility period, Test session (male Wistar/AF EOPS rats [1]; FG-100 group, 100 μg/kg i.v.): 138.30 ± 11.03
abdominal tone (FIG. 3) (male Wistar rats [6]): less stressed
aggressiveness (male Wistar rats [6]): not associated with an increase of aggressiveness
finger approach test (male Wistar rats [6]): increased interest
startle response test (FIG. 2) (male Wistar rats [6]): less stressed
vocalization when third parties approach (male Wistar rats [6]): increased vocalization
wire maneuver test (male Wistar rats [6]): Significant response
tail pinch test (FIGS. 4-7) (male Wistar rats [6]; 15, 30, 60, 120 minutes): less reactivity to nociceptive stimuli
awareness state / sleep (FIG. 1) (male Wistar rats [6]; after 2 hours of tests): much less likely to fall asleep

CC[C@H](C)[C@@H]1NC(=O)[C@H](Cc2ccc(O)cc2)NC(=O)[C@@H](N)CSSC[C@@H](C(=O)N2CCC[C@H]2C(=O)N[C@@H](CC(C)C)C(=O)NCC(N)=O)NC(=O)[C@H](CC(N)=O)NC(=O)[C@H](CCC(N)=O)NC1=O [oxytocin]
locomotion (male rats [7]): decrease locomotion
